Assays:
FAAH = biological target: T1, FAAH (Mus musculus, UniProt O08914); assay: Escalating oral dose study in mice, brain FAAH activity; assay type: in vivo
T1 construct: brain FAAH Activity was also evaluated in an escalating oral dose study in mice; from tissue; host or cells: mouse brain
T1 sequence (O08914 1-579): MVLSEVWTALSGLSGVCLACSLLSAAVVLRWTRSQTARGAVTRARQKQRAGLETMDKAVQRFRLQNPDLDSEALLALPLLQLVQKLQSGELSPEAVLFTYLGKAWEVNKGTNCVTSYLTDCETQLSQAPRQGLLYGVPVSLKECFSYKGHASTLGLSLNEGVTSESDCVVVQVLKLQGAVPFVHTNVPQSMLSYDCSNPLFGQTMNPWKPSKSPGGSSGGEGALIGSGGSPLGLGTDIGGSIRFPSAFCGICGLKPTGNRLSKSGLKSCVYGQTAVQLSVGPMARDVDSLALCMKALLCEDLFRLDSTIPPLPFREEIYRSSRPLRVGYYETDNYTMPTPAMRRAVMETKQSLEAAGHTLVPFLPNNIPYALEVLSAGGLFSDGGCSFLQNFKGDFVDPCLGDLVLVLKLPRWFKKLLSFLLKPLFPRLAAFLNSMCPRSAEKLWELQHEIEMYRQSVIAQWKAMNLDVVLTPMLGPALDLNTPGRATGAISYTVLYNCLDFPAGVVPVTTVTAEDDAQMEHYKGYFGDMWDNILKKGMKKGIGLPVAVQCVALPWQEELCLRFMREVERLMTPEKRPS
Method: Finally, the correlation between increases in plasma OEA levels and brain FAAH Activity was also evaluated in an escalating oral dose study in mice. Inhibition of FAAH activity was maximal at 50 mg/kg p.o. and partial 10 mg/kg p.o. (FIG. 12). Increases in plasma OEA levels directly correlated with brain FAAH inhibition (FIG. 13).

OEA plasma levels = assay: Plasma/serum OEA and PEA levels by LC-MS/MS after oral administration in rats; assay type: in vivo; details: rat, 30 mg/kg p.o. vs 10 mg/kg p.o.
Method: At 0, 1, 2, 4, 8, 12, and 24 hours post-administration, animals were sacrificed to collect serum and brain tissue samples. For each time point, FAAH activity was determined in brain tissue homogenates by essentially the same method as that described in Fegley et al. (2005), J. Pharm. and Exp. Ther., 313:352-358. We observed complete FAAH inhibition at 10 mg/kg and partial FAAH inhibition at 1 mg/kg (FIG. 1).
Serum OEA and PEA levels were determined by LC-MS/MS. As shown in FIGS. 2 (A-B), plasma levels of both OEA and PEA were highly correlated with FAAH inhibition in the brain (R^2=0.9459 and 0.929, respectively). In addition, changes in OEA plasma levels correlated with changes in anandamide (AEA) levels in the brain (FIG. 3; R^2=0.9363), and changes in AEA brain levels correlated with brain FAAH inhibition (FIG. 4; R^2=0.9996). […] AUCs were determined as the sum of the area under the plasma concentration curve of the analyte measured (minus the endogenous level), or as a % FAAH inhibition versus time curve from time zero to the last time point collected by the trapezoidal rule.

plasma OEA levels = assay: Time course of plasma OEA levels after oral administration to cynomolgus monkeys; assay type: in vivo
Method: Afterwards, a time course of plasma OEA levels was determined for each subject by obtaining a plasma sample at 0.5, 1, 2, 4, 8, 12, and 24 hours post-administration.

[1] = tested on: OEA and PEA levels in plasma; assay: 28-day toxicokinetic (TK) study in rodents, plasma OEA and PEA levels; assay type: in vivo, rat; details: rodent TK study, 50, 275 and 1500 mg/kg
Excerpt: We carried out toxicokinetic (TK) studies in rodents. […] AEA was included in this assay to examine whether basal or elevated levels of AEA could be detected.

## NC(=O)c1cccc(-c2cccc(OC(=O)NC3CCCCC3)c2)c1 [KDS-4103]
FAAH; 10 mg/kg p.o.
  Inhibition of FAAH activity in brain: partial
FAAH; 50 mg/kg p.o.
  Inhibition of FAAH activity in brain: maximal
OEA plasma levels
  plasma levels of OEA at 30 mg/kg compared with 10 mg/kg: did not increase plasma levels of OEA above those observed at 10 mg/kg
Plasma OEA levels; 50-1500 mg/kg
  inhibition of FAAH activity in primates, concluded from plasma OEA: highly effective
Plasma OEA levels; each dose of 50-1500 mg/kg
  time of peak plasma OEA levels: four
Plasma OEA levels; each dose of 50-1500 mg/kg, up to 24 hours
  plasma OEA levels after the peak: remained elevated at all subsequent time points examined
[1]
  FAAH inhibition inferred from OEA and PEA increases: complete across all doses
  Increases in OEA and PEA levels across the dose range: similar

Reference: patent US20080089845A1, “METHODS FOR DETERMINING EFFECTIVE DOSES OF FATTY ACID AMIDE HYDROLASE INHIBITORS IN VIVO” (N.V. Organon, priority 2006, published 2008)
